Earlier results as cited in US20060088612A1, “Composition for treatment of topical infection and methods of making and using same” (priority 2004, published 2006).

Test system: HSV
Conditions: topical medication for HSV

CCCCCCCCCCCCCCCCCCCCCCO [docosanol]
effectiveness versus placebo: no more effective than a placebo
